From PubChem BioAssay AID2305 (GlaxoSmithKline (GSK), 2010)
Several values for one entry are separate records, joined by “and”; a condition that tells them apart may be missing. Equal entries are not always repeated.

These molecules were tested on P. falciparum 3D7 growth, pLDH absorbance (assay: P. falciparum 3D7 growth inhibition, dose response, strain 3D7 (AID 2305)).
For `CCCCOC(=O)[C@H](CCC)NC(=O)c1ccc(NS(=O)(=O)c2ccc3nc(N)[nH]c(=O)c3c2)cc1`, the IC50 was 200 nM.
Molecule `CC(C)N=C(N)NN=Cc1ccc(Cl)c(Cl)c1` has an IC50 of 530 nM.
`Cc1cccc2[nH]c(-c3ccc(-c4cccc(NC(=O)C(C)CN(C)C)c4)cc3)nc12` (stereo unspecified) gave an IC50 of 650 nM.
`CN(C)CCOc1ccc(N2CCN(CCCCNC(=O)c3ccc(NC(=O)c4ccc(Cl)cc4)cc3)CC2)cc1` showed an IC50 of 830 nM.
Molecule `O=C(/C=C/c1ccc(F)cc1)NC1CCC(CCN2CCc3ccc(-n4cccn4)cc3CC2)CC1` (stereo unspecified) has an IC50 of 1440 nM.
Molecule `O=S(=O)(NC1CCCCN(Cc2ccccc2O)C1)c1ccc(C(F)(F)F)cc1` (stereo unspecified) has an IC50 of 1300 nM.
In the case of `COc1ccc(-c2cnc(N)nc2N)cc1Cl`, the IC50 is reported as 1400 nM.
Molecule `COc1ccc2nc3cc(Cl)ccc3c(Nc3ccc(O)c(CNC(C)C)c3)c2c1` has an IC50 of 140 nM.
In the case of `CCCNCc1ccc(-c2ccc(CN(CCOC)C(=O)[C@H]3CCCO3)cc2)nc1`, the IC50 is reported as 750 nM.
For `O=C(CCC1CCCC1)N(Cc1ccc(-c2ccc(CNCCc3ccccc3)cc2)cc1)C1CCCNC1` (stereo unspecified), the IC50 was 1220 nM.
Work on `CCOc1cc(C)ccc1C1CCN(CCCCNC(=O)c2nc(-c3ccc(C(F)(F)F)cc3)[nH]c2C)CC1` yielded an IC50 of 730 nM.
`O=C(Nc1ccc(Cn2ncc(N3CCCNCC3)c(Cl)c2=O)cc1)Nc1cc(Cl)cc(Cl)c1` showed an IC50 of 870 nM.
Work on `O=C(Nc1ccc(CN2CCOCC2)cc1)c1ccc(-c2ccc(Br)cc2)o1` yielded an IC50 of 1120 nM.
`CN(Cc1ccccc1)C(=O)c1nn(CCCN2CCC(N3CCCC3)CC2)cc1-c1ccc(Cl)c(Cl)c1` was tested, and the IC50 was 770 nM.
`Nc1nc(Nc2cccc(Cl)c2)ncc1C(=O)NCc1ccncc1` gave an IC50 of 830 nM.
For `CC[C@H](C)CNC(=O)c1cncc(-c2ccc(CNC3CCCC3)cc2)c1`, the IC50 was 1120 nM.
`N#Cc1ccc(-n2cc(C(=O)Nc3ccc4c(c3)CCN(C3CCC3)CC4)c(C(F)(F)F)n2)cc1` showed an IC50 of 290 nM.
`COc1cc(C=CC(=O)NC2CCC(CN3CCC(c4c[nH]c5ccccc45)CC3)CC2)cc(OC)c1` (stereo unspecified) gave an IC50 of 810 nM.
`c1ccc(-c2ccc(CNCc3ccc(-c4cccc(-c5nc6ccccc6[nH]5)c4)cc3)s2)nc1` showed an IC50 of 400 nM.
With `COc1cccc(C(O)CNc2ccnc(Nc3ccc(Cl)cc3)n2)c1` (stereo unspecified) the IC50 was 610 nM.
`CC(Cc1ccc(CNC(=O)NCc2ccc(CC(C)NCCc3cccc(Cl)c3)cc2)cc1)NCCc1cccc(Cl)c1` (stereo unspecified) was tested, and the IC50 was 690 nM.
Work on `CC(C)c1cc(C(=O)N[C@@H](Cc2ccccc2)[C@H](O)CNC2CCCCC2)cc(N2CCCC2=O)c1` yielded an IC50 of 120 nM.
`CCN(CCCN1CCCCC1)c1cc(C)nc(Nc2cccc(OC(F)(F)F)c2)n1` was tested, and the IC50 was 230 nM.
With `O=C(/C=C/c1cccc(C(F)(F)F)c1)NCCCCCN1CCN(C(=O)Nc2ccc(Cl)c(Cl)c2)CC1` the IC50 was 930 nM.
`O=C(Nc1ccc(OC2CCN(Cc3ccc(F)cc3)C2)cc1)c1ccco1` (stereo unspecified) showed an IC50 of 1040 nM.
Molecule `O=C(NC1CCN(CC2(c3ccc(Cl)cc3)CCC2)CC1)c1ccn[nH]1` has an IC50 of 420 nM.
`CCOC(C(=O)OCC1CCCN1C(C)C)(c1ccccc1)c1ccccc1` (stereo unspecified) gave an IC50 of 760 nM.
With `O=C(Nc1ccc2c(c1)CCC2)c1cccc(CN2CCCN(Cc3cccc(O)c3)CC2)c1` the IC50 was 1080 nM.
`CCNc1cc(C(=O)N[C@@H](Cc2ccccc2)[C@H](O)CNC2CCC(C)(C)CC2)cc(N2CCCCS2(=O)=O)c1` gave an IC50 of 650 nM.
For `O=C(Nc1ccc(OC2CCN(Cc3ccc(F)cc3)CC2)cc1)c1cccs1`, the IC50 was 970 nM.
`C[C@@H]1CN(c2ccc3occ(C(=O)Nc4ccc(-c5ccncc5)c(Cl)c4)c3c2)C[C@H](C)N1C` gave an IC50 of 850 nM.
`Cn1nc(-c2cccc(CN[C@@H]3CCc4ccc(O)cc43)c2)c2cnc(NCCCN3CCCC3)nc21` was tested, and the IC50 was 830 nM.
`CN(C)CC1CCCN1Cc1ccccc1-c1cnn(C)c(=O)c1Oc1cccc(C#N)c1` (stereo unspecified) showed an IC50 of 1340 nM.
`CC(=O)Nc1cccc(C(=O)Nc2cccc(-c3cccc(-c4nc5ccc(F)cc5[nH]4)c3)c2)c1` showed an IC50 of 550 nM.
Work on `COc1ccc(-c2nc(NC(=O)Cc3coc4cc(OC)ccc34)sc2C)cc1` yielded an IC50 of 610 nM.
Work on `OC(CNC1CCCCCC1)c1ccc(Cl)c(Cl)c1` (stereo unspecified) yielded an IC50 of 690 nM.
Work on `O=S(=O)(NCCN1CCCC1)c1ccc(-c2cccc(CNC3Cc4ccccc4C3)c2)cc1` yielded an IC50 of 620 nM.
For `CCN1CCCC(CNC(=O)/C(=C/C=C/c2cc3cc(Cl)c(Cl)cc3[nH]2)OC)C1` (stereo unspecified), the IC50 was 890 nM.
With `CCN(CCCN1CCCCC1)c1cc(C)nc(Nc2ccc(C)cc2C)n1` the IC50 was 350 nM.
With `COC(=O)c1cccc(CNCc2ccc(-c3ccc(-c4nc5c(C)cccc5[nH]4)cc3)cc2)c1` the IC50 was 280 nM.
In the case of `CCOc1ccc2c(c1)OC(c1ccccc1)(C(F)(F)F)NC2=O` (stereo unspecified), the IC50 is reported as 170 nM.
For `O=C(CCCCCNC(=O)c1ccc(O)c(-c2ccc(Cl)c(Cl)c2)c1)NCc1cccc(C(F)(F)F)c1`, the IC50 was 730 nM.
`Oc1ccc(Cc2cc(Oc3c(I)cc(CCc4ncc[nH]4)cc3I)ccc2O)cc1` was tested, and the IC50 was 710 nM.
Work on `c1ccc2c(NCCCCCCCCCNc3c4ccccc4nc4ccccc34)c3ccccc3nc2c1` yielded an IC50 of 300 nM.
In the case of `Cc1nc2nc(N)nc(N)c2c(C)c1Cc1ccc(C(F)(F)F)cc1`, the IC50 is reported as 750 nM.
`CC(C)NCc1cccc(-c2cccc(NC(=O)c3cccc(C#N)c3)c2)c1` showed an IC50 of 820 nM.
`Cc1cc(N[C@@H](Cc2ccccc2)C(=O)NCCOc2ccccc2)nc(NCCc2cccs2)n1` gave an IC50 of 1000 nM.
For `O=C(/C=C/c1ccc(Cl)c(Cl)c1)NC1CCC(CN2CC[C@H](c3c[nH]c4ccccc34)[C@@H](O)C2)CC1` (stereo partly specified), the IC50 was 720 nM.
In the case of `Cc1ccc(/C=C/C(=O)NC2CCC(CN3CCC(c4c[nH]c5ccccc45)CC3)CC2)cc1` (stereo unspecified), the IC50 is reported as 920 nM and 800 nM.
With `Cc1cnc(NCC2CCCCC2)nc1N[C@@H](CO)C(=O)Nc1ccccc1` the IC50 was 1100 nM.
In the case of `O=C(Nc1ccc(C(F)(F)F)cc1)NC1CCN(CCCCCNC(=O)[C@@H]2C[C@H]2c2ccc(Cl)c(Cl)c2)CC1`, the IC50 is reported as 630 nM.
Work on `COc1ccc(C(c2ccc(N(C)C)cc2)c2ccc(N(C)C)cc2)cc1` yielded an IC50 of 60 nM.
`O=C(Cn1c(CCc2cccc(F)c2F)nc(=O)c2ccccc21)N(Cc1ccc(-c2ccc(C(F)(F)F)cc2)cc1)C1CCN(C2=NCCS2)CC1` gave an IC50 of 1330 nM.
Work on `O=c1cc(NCCNCc2cccc(-c3ccccc3)c2)[nH]c2ccccc12` yielded an IC50 of 1030 nM.
For `Nc1nc(Nc2cccc(O)c2)nc2ccccc12`, the IC50 was 790 nM.
With `Cc1[nH]c(C)c(-c2ccc(OCCSc3ccncc3)cc2)c(=O)c1Br` the IC50 was 390 nM.
For `COc1ccc(CNC(=O)c2cnc3c(O)cccc3c2Nc2cccc(NC(=O)c3ccc(Cl)c(Cl)c3)c2)cc1`, the IC50 was 600 nM.
For `O=C(CCC1CCCCC1)NCCNc1cccc2ccccc12`, the IC50 was 830 nM.
Molecule `CCOC(=O)N(C)/N=C/[C@H](CCc1ccccc1)NC(=O)[C@H](CC(C)C)NC(=O)c1cc2cccc(OC)c2o1` has an IC50 of 560 nM.
With `COc1ccc(CNCCc2cccs2)cc1-c1ccc(S(=O)(=O)NCCN2CCCC2)s1` the IC50 was 880 nM.
Work on `CCC[C@@H]([C@@H](CC(C)C)C(=O)N[C@@H](CCCCNC(=O)c1cccc(OC)c1)C(=O)Nc1nccs1)N(O)C=O` yielded an IC50 of 100 nM.
`CCc1nn2c(Nc3ccncc3)cc(C)nc2c1-c1ccccc1` showed an IC50 of 200 nM.
For `O=C(CCc1cccnc1)Nc1cccc(-c2ccc(-c3nc4ccc(C(F)(F)F)cc4[nH]3)s2)c1`, the IC50 was 950 nM.
In the case of `O=C(c1ccc([N+](=O)[O-])o1)N1CCC(c2cn(Cc3cccc(F)c3)c3ccccc23)CC1`, the IC50 is reported as 640 nM.
For `O=C(NCCCCN1CCC(c2ccc3c(c2OCc2ccncc2)CCCC3)CC1)c1ccc(-c2ccc(C(F)(F)F)cc2)cc1`, the IC50 was 170 nM.
`COc1cc(C(=O)N2CCOC(CCN3CCC(Cc4ccc(F)cc4)CC3)(c3ccc(Cl)c(Cl)c3)C2)cc(OC)c1OC` (stereo unspecified) showed an IC50 of 900 nM.
With `N=c1n(CCN2CCCCC2)c2ccccc2n1CC(=O)c1cccc([N+](=O)[O-])c1` the IC50 was 880 nM.
Work on `N#Cc1cncc(-c2nc3c(N4CCN(c5cnccn5)CC4)cccc3n2CCNCc2ccccc2)c1` yielded an IC50 of 910 nM.
`CCCCCCNc1cc(C)nc2ccc(OC)cc12` was tested, and the IC50 was 550 nM.
With `COc1ccc(CN(C)CCCSc2ccc(NC(=O)c3cccc4c(=O)cc(-c5ccccc5)[nH]c34)cc2)cc1OC` the IC50 was 920 nM.
With `Cc1cc(OCCCN2CCCCC2)ccc1NC(=O)COc1ccc(Cl)cc1C(=O)c1cc(Cl)cc(C#N)c1` the IC50 was 890 nM.
With `O=C(NCCN1Cc2ccccc2C1=O)c1ccc(Oc2ccc(C(=O)NCCN3Cc4ccccc4C3=O)cc2)cc1` the IC50 was 360 nM.
`CC(=O)Nc1ccc(C2NC(=O)NC(c3ccccc3)=C2c2nc3ccccc3s2)cc1` (stereo unspecified) gave an IC50 of 1110 nM.
`Cc1cccc(Nc2nc(C)cc(N3CCCN(CC4CCCCC4)CC3)n2)c1` showed an IC50 of 1120 nM.
In the case of `COC(=O)c1c(C#N)c(OC)cc(O)c1CSC[C@@H](CN1CCCCC1)Nc1nc(-c2ccc([N+](=O)[O-])cc2)cs1`, the IC50 is reported as 1270 nM.
Molecule `O=C(Nc1cccc(CN2CCCN(Cc3ncc[nH]3)CC2)c1)c1cc2ccccc2s1` has an IC50 of 730 nM.
In the case of `Cc1ccccc1C1CCN(C2CCC(NC(=O)c3cncc(-c4ccccc4)c3)CC2)CC1` (stereo unspecified), the IC50 is reported as 930 nM.
For `COC(=O)c1cc(C(O)CNC(C)CCc2cccc(F)c2)ccc1O` (stereo unspecified), the IC50 was 1180 nM.
`Cc1[nH]c(C)c(-c2ccc(-c3ccc(F)cc3)cc2)c(=O)c1Br` was tested, and the IC50 was 1070 nM.
With `Cc1nnc(-c2cccc(Nc3ccnc4cc(-c5nccs5)ccc34)c2)o1` the IC50 was 630 nM.
`NC1CCN(Cc2cccc(-c3ccc(-c4nc5ccccc5[nH]4)cc3)c2)C1` (stereo unspecified) showed an IC50 of 830 nM.
`Oc1cc2c(cc1CN1CCN(Cc3ccc(Cl)s3)CC1)CCC2` was tested, and the IC50 was 620 nM.
For `c1ccc2c(NCCCCCCCNc3ccnc4ccccc34)ccnc2c1`, the IC50 was 170 nM.
Molecule `S=C(NCCc1ccc(Cl)cc1)NC1CCC(CN2CCC(c3c[nH]c4ccccc34)CC2)CC1` (stereo unspecified) has an IC50 of 700 nM.
Work on `COc1cc(Nc2nccn3c(-c4ccsc4)cnc23)cc(OC)c1OC` yielded an IC50 of 890 nM.
With `NC(=O)c1cccc(C(=O)Nc2cccc(-c3cccc(-c4nc5ccccc5[nH]4)c3)c2)c1` the IC50 was 550 nM.
`COc1cccc(CNC[C@@H](O)[C@H](Cc2ccccc2)NC(=O)c2cc(C3CCCC3)cc(N3CCCCS3(=O)=O)c2)c1` showed an IC50 of 600 nM.
Work on `CCN(CC)CCN(Cc1ccc(-c2ccc(C(F)(F)F)cc2)cc1)C(=O)Cn1c(CCc2cc(F)cc(F)c2F)nc(=O)c2ccccc21` yielded an IC50 of 760 nM.
`Fc1cc(Cl)ccc1Nc1ccnc2cc(-c3ccc(CN4CCSCC4)o3)ccc12` was tested, and the IC50 was 780 nM.
`CN(C)CCOc1cc(NC(=O)Nc2ccc(Oc3ccccc3)cc2)ccc1I` gave an IC50 of 890 nM.
`COc1ccc(-c2ccc(NC(=O)c3ccc(C#N)cc3)cc2)cc1CN(C)CCN(C)C` gave an IC50 of 660 nM.
`COc1cc2cc(C(=O)Nc3ccccc3)c(N)nc2cc1OC` was tested, and the IC50 was 1130 nM.
Work on `CC(C)Oc1ccc2c(c1)OC(c1ccccc1)(C(F)(F)F)NC2=O` (stereo unspecified) yielded an IC50 of 140 nM.
With `COC(=O)c1ccc(CC(C)NCC(O)c2cccc(Br)c2)cc1` (stereo unspecified) the IC50 was 690 nM.
With `O=C(Cn1c(CCc2cccc(F)c2F)nc(=O)c2ccccc21)N(CCCN1CCCC1)Cc1ccc(-c2ccc(C(F)(F)F)cc2)cc1` the IC50 was 940 nM.
`CC(C)(C)SCC(O)Cn1c2ccc(Br)cc2c2cc(Br)ccc21` (stereo unspecified) gave an IC50 of 1000 nM.
